{"source": "patent US4837399A", "about": "“Napthoquinone antibiotics from fuserium solani” (The United States of America as represented by the …, priority 1988, dated 1989)", "format_in_all_cases": "cell-based", "key": {"[1]": {"system": "Staphylococcus aureus", "test": "Broth microdilution assay, Staphylococcus aureus", "conditions": "for MIC: A = Staphylococcus aureus, complete suppression of microbial growth, read-out: Antibacterial activity (MIC)", "description": "(§1) Purified compounds were tested for antibiotic activity by dissolving in dimethyl sulfoxide and utilizing a standard broth microdilution assay. The smallest amount of compound resulting in complete inhibition of bacterial growth is the minimum inhibitory concentration (MIC).\n(§2) The organisms used in the tests were three strains of gram-positive bacteria: Staphylococcus aureus, Streptococcus pyogenes, and a strain of Staphylococcus aureus which was resistant to the antibiotic methicillin.\n(§3) Antimicrobial activity of compounds was determined against a group of bacterial pathogens, using a broth microdilution assay.Pathogens tested included Staphylococcus aureus, Streptococcus pyogenes, Escherichia coli, Serratia marcescens, Proteus vulgaris, Klebsiella pneumoniae, Salmonella typhi, and Pseudomonas aeruginosa. Activity against plant pathogenic bacteria was tested by applying acetone solutions of compounds to 14 mm Whatman No. 1 filter paper discs, drying and placing four discs/plate on freshly inoculated Kings medium B plates. Pseudomonas cepacia, P. cichorii, P. fluorescens, P. syringae pv. phaseolicola, P. viridiflava, and Xanthomonas campestris were exposed to discs containing 20 μg of compound; Curtobacterium flaccumfaciens pv. poinsettiae (formerly Corynebacterium poinsettiae) was tested at 20, 40, and 80 μg/disc. Using a similar assay procedure, Alternaria citri, Colletotrichum gloeosporioides, Diplodia natalensis, Fusarium solani, F. oxysporum, Geotrichum candidium, Phomopsis citri, and Phytophthora parasitica were tested to determine the antifungal properties of the compounds."}, "[2]": {"system": "Streptococcus pyogenes", "test": "Broth microdilution assay, Streptococcus pyogenes", "conditions": "for MIC: B = Streptococcus pyogenes, complete suppression of microbial growth, read-out: Antibacterial activity (MIC)", "description": "as §1, §2, §3"}, "[3]": {"system": "Staphylococcus aureus 95 (resistant to methicillin)", "test": "Broth microdilution assay, Staphylococcus aureus 95 (resistant to methicillin)", "description": "as §1, §2"}, "[4]": {"system": "gram-positive bacteria", "test": "Broth microdilution assay, gram-positive bacteria overall", "description": "as §1, §2\nas §3, with “Using a similar assay procedure, Alternaria citri, Colletotrichum gloeosporioides, Diplodia natalensis, Fusarium solani, F. oxysporum, Geotrichum candidium, Phomopsis citri, and Phytophthora parasitica were tested to determine the antifungal properties of the compounds.” left out"}, "[5]": {"system": "Curtobacterium flaccumfaciens pv. poinsettiae", "test": "Filter paper disc assay, Curtobacterium flaccumfaciens pv. poinsettiae", "conditions": "20, 40, and 80 μg/disc, Kings medium B plates", "description": "as §3\nThey were, however, effective against gram-positive bacteria."}}}
{"smiles": "COc1cc(O)c2c(c1O)C(=O)C(CC(C)O)C(CO)C2=O", "note": "(stereo not drawn) [Compound 1, 2,3-Dihydro-5,8-dihydroxy-6-methoxy-2-hydroxymethyl-3-(2-hydroxypropyl)-1,4-naphthalenedione]", "values": [{"measurement": "effectiveness in control of Staphylococcus aureus (in words)", "setting": "[1]", "value": "most effective"}, {"measurement": "MIC", "setting": "[1]", "value": 1, "unit": "µg/mL"}, {"measurement": "preference for control of Streptococcus pyogenes (in words)", "setting": "[2]", "value": "preferred"}, {"measurement": "MIC", "setting": "[2]", "value": 0.5, "unit": "µg/mL"}, {"measurement": "preference for control of Staphylococcus aureus 95 (in words)", "setting": "[3]", "value": "preferred"}, {"measurement": "MIC", "setting": "[3]; C = Staphylococcus aureus 95 (resistant to methicillin), complete suppression of microbial growth, read-out: Antibacterial activity (MIC)", "value": 4, "unit": "µg/mL"}, {"measurement": "effectiveness against gram-positive bacteria (in words)", "setting": "[4]", "value": "the most effective"}, {"measurement": "MIC", "setting": "[4]; read-out: inhibiting growth", "value": "0.5 to 1", "unit": "µg/mL"}]}
{"smiles": "COC1=CC(=O)c2c(O)c(CO)c3c(c2C1=O)OC(C)C3", "note": "(stereo not drawn) [Compound 2, 2,3-Dihydro-5-hydroxy-4-hydroxymethyl-8-methoxy-2-methyl-naphtho [1,2-b]furan-6,9-dione]", "values": [{"measurement": "effectiveness in control of Staphylococcus aureus (in words)", "setting": "[1]", "value": "most effective"}, {"measurement": "MIC", "setting": "[1]", "value": 4, "unit": "µg/mL"}, {"measurement": "MIC", "setting": "[2]", "value": 64, "unit": "µg/mL"}, {"measurement": "ranking of activity against Curtobacterium flaccumfaciens pv. poinsettiae", "setting": "[5]", "value": "most active"}]}
{"smiles": "COC1=CC(=O)c2c(O)c(CO)c(CC(C)O)c(O)c2C1=O", "note": "(stereo not drawn) [Compound 3, 5,8-Dihydroxy-2-methoxy-6-hydroxymethyl-7-(2-hydroxypropyl)-1,4-naphthalenedione]", "values": [{"measurement": "MIC", "setting": "[1]", "value": 1, "unit": "µg/mL"}, {"measurement": "MIC", "setting": "[2]", "value": 64, "unit": "µg/mL"}, {"measurement": "ranking of activity against Curtobacterium flaccumfaciens pv. poinsettiae", "setting": "[5]", "value": "followed by 1 and 3"}]}
